Patent US20130109693A1, “DERIVATIVES OF PYRIDO [3,2-D] PYRIMIDINE, METHODS FOR PREPARATION THEREOF AND THERAPEUTIC USES THEREOF” (UNIVERSITE D'ORLEANS, priority 2010, published 2013)
pIC50: −log10 of the molar value.

Legend:
HCT 116 = test: Cytotoxicity on human cells, HCT 116 (colon); assay type: cell-based; settings: exposed 24 h and 48 h, 0.1 to 25 μM
Protocol: (§1) […] Dosages on Human cells (Huh7, Caco, MDA-MB 231, HCT 116, PC3, NCl, Fibroblast)
(§2) Cytotoxicity: This method is based on an automated imaging analysis. 4.10^3 cells were cultivated on 96-well plates and thus left for 24 hours so that they may bind, be distributed and proliferate.
(§3) These cells were then exposed for 24 h and 48 h to increasing concentrations of the compounds of the invention, from 0.1 to 25 μM in a final volume of 80 μL of culture medium. The cells are then set with a 4% paraformaldehyde solution and the nuclei are colored with Hoechst 3342 and counted according to automated imaging quantification.
(§4) All the cell lines were cultivated in a DMEM or RPMI (Invitrogen) medium. All these media were completed with antibiotics (penicillin-streptomycin)(Lonza) and 10% by volume of foetal calf serum (Invitrogen). The cells were cultivated at 37° C. with 5% of CO2. The treatments with the molecules to be tested were carried out with increasing concentrations. […] The control experiments were also conducted by using suitable dilutions of DMSO (maximum 1% DMSO). Cell viability was determined by measuring the reduction of MTS as described in the article of Ribas J, Boix J. (2004). Cell differentiation caspase inhibition and macromolecular synthesis blockage but not BCL-2 or BCL-XL proteins protect SH-SY5Y cells from apoptosis triggered by two CDK inhibitory drugs. Exp. Cell Res., 295: 9-24.

DYRK1A = DYRK1A (Homo sapiens, UniProt Q13627); test: DYRK1A kinase inhibition (Woodtide substrate, buffer A); assay type: biochemical; settings: 15 μM ATP, 30° C., recombinant GST fusion; read-out: IC50 Kinases DYRK1A
Protocol: (§5) The activities for inhibiting protein kinases of the compounds of the invention are tested according to the following general procedure:
(§6) Buffer A: 10 mM MgCl2, 1 mM EGTA, 1 mM DTT, 25 mM Tris-HCl pH 7.5 and 50 μg heparin/mL.
(§7) The kinase activities are dosed in buffers A or C, at 30° C., at a final concentration of ATP of 15 μM. The values of the blanks were subtracted and the activities are expressed as a % of the maximum activity, i.e. in the absence of inhibitors. The controls were carried out with suitable dilutions of DMSO.

GSK-3αβ = GSK-3αβ kinase inhibition (GS-1 substrate, buffer A); assay type: biochemical; settings: 15 μM ATP, 30° C., native, pig brain; read-out: IC50 Kinases GSK3
Protocol: as §5, §6, §7
GSK-3αβ (from pig brain, native) was assayed by using a specific substrate of GSK-3 (GS-1: […]pEDEEE)(Sp represents a phosphorylated serine) (Primot, A., Baratte, B., Gompel, M., Borgne, A., Liabeuf, S., Romette, J. L., Costantini, F. and Meijer, L., 2000. Purification of GSK-3 by affinity chromatography on immobilized axin. Protein Expr. & Purif. 20 (3), 394-404). GS-1 was synthesized by Millegen (Labège, France). Its kinase activity was analyzed in the buffer A, with 1 mg of histone H1/mL, in the presence of 15 μM of [γ-^33P] ATP (3,000 Ci/mmol; 10 mCi/mL) in a final volume of 30 μl. After 30 mins of incubation at 30° C., 25 μl of supernatant aliquots were deposited on 2.5×3 cm pieces of phosphocellulose Whatman P81papier, and after 20 seconds, the filters were washed five times (for at least 5 minutes every time) in a solution of 10 mL of phosphoric acid/liter of water. The wet filters were counted in the presence of 1 mL of ACS scintillator fluid (Amersham).

Huh7 = test: Cytotoxicity on human cells, Huh7 (liver); assay type: cell-based; settings: Huh-7, human cells, exposed 24 h and 48 h, 0.1 to 25 μM
Protocol: as §1, §2, §3, §4

NCI = test: Cytotoxicity on human cells, NCI (lung); assay type: cell-based; settings: exposed 24 h and 48 h, 0.1 to 25 μM
Protocol: as §1, §2, §3, §4

MDA-MB 231 = test: Cytotoxicity on human cells, MDA-MB 231 (breast); assay type: cell-based; settings: MDA-MB-231, human cells, exposed 24 h and 48 h, 0.1 to 25 μM
Protocol: as §1, §2, §3, §4

CDK5 = molecular target: T1, CDK5 (Homo sapiens, UniProt Q00535); test: CDK5 kinase inhibition (histone H1, [γ-33P] ATP, buffer C); assay type: biochemical; settings: 15 μM ATP, 30° C., recombinant; read-out: IC50 Kinases CDK5
T1 construct: made in house
Protocol: as §5
Buffer C: 60 mM β-glycerophosphate, 15 mM p-nitrophenyl-phosphate, 25 mM Mops (pH 7.2), 5 mM EGTA, 15 mM MgCl2, 1 mM DTT, 1 mM of sodium vanadate
as §7
CDK5 (humane, recombinant) was prepared as described earlier (Leclerc, S.; Garnier, M.; Hoessel, R.; Marko, D.; Bibb, J. A.; Snyder, G. L.; Greengard, P.; Biernat, J.; Mandelkow, E.-M.; Eisenbrand, G.; Meijer, L. Indirubins inhibit glycogen synthase kinase-3β and CDK5/p25, two kinases involved in abnormal tau phosphorylation in Alzheimer's disease—A property common to most CDK inhibitors? J. Biol. Chem. 2001, 276, 251-260; Bach S, Knockaert M, Reinhardt J, Lozach O, Schmitt S, Baratte B et al. (2005). Roscovitine targets, protein kinases and pyridoxal kinase. J. Biol Chem 280: 31208-31219). Its kinase activity was analyzed in the buffer C, with 1 mg of histone H1/mL, in the presence of 15 μM of [γ-^33P] ATP (3,000 Ci/mmol; 10 mCi/mL) in a final volume of 30 μl. After 30 mins of incubation at 30° C., 25 μl of supernatant aliquots were deposited on 2.5×3 cm pieces of phosphocellulose Whatman P81 paper, and after 20 seconds, the filters were washed five times (for at least 5 minutes every time) in a solution of 10 mL phosphoric acid/liter of water. The wet filters were counted in the presence of 1 mL of ACS scintillator fluid (Amersham).

PC3 = test: Cytotoxicity on human cells, PC3 (prostate); assay type: cell-based; settings: PC-3, human cells, exposed 24 h and 48 h, 0.1 to 25 μM
Protocol: as §1, §2, §3, §4

fibroblast = test: Cytotoxicity on human cells, fibroblast; assay type: cell-based; settings: exposed 24 h and 48 h, 0.1 to 25 μM
Protocol: as §1, §2, §3, §4

Caco = test: Cytotoxicity on human cells, Caco (colon); assay type: cell-based; settings: exposed 24 h and 48 h, 0.1 to 25 μM
Protocol: as §1, §2, §3, §4

T1 sequence (Q00535 whole entry): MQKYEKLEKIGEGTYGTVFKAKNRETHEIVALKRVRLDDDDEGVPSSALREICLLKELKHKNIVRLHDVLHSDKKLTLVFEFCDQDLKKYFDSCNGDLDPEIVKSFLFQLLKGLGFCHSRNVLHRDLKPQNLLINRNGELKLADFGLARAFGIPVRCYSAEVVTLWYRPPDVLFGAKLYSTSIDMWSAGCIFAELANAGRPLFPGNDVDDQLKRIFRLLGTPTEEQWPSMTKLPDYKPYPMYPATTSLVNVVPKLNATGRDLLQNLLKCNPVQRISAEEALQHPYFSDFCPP
T1 sequence (Q15078 99-307 partner limits assumed): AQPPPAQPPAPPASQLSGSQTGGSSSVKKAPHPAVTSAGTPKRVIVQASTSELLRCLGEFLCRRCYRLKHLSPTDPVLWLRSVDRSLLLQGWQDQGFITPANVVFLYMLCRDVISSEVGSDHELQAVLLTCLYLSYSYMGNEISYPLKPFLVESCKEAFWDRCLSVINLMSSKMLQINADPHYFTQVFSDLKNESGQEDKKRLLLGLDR

Row | melting point | pIC50 (DYRK1A) | pIC50 (GSK-3αβ) | pIC50 (CDK5) | Structure (SMILES) | pIC50 (HCT 116) | pIC50 (Huh7) | pIC50 (NCI) | pIC50 (MDA-MB 231) | pIC50 (PC3) | pIC50 (fibroblast) | pIC50 (Caco)
1 | > 268 °C | < 5.00 | 5.35 | 6.15 | Oc1ccc(Nc2ncc3ncc(-c4cccc(O)c4)cc3n2)cc1 [Compound 61, 2-(4-Hydroxyphenylamino)-7-(3-hydroxyphenyl)-pyrido[3,2-d]pyrimidine] | 4.92 | 5.00 | 5.40 | 5.05 | 5.15 | 5.70 | 4.92
2 | 262 to 264 °C | < 5.00 | < 5.00 | 5.43 | Oc1ccc(Nc2ncc3ncc(-c4ccccc4O)cc3n2)cc1 [Compound 60, 2-(4-Hydroxyphenylamino)-7-(2-hydroxyphenyl)-pyrido[3,2-d]pyrimidine] | 5.10 | 5.22 | 5.30 | 5.00 | 4.70 | 5.30 | 5.40
3 | 149 to 150 °C | < 5.00 | < 5.00 | < 5.00 | COc1ccc(Nc2cnc3c(NCc4ccccc4)nc(NCCO)nc3c2)cc1OC [Compound 85, 4-Benzylamino-7-(3,4-dimethoxyphenylamino)-2-(2-hydroxyethylamino)-pyrido[3,2-d]pyrimidine] | 5.40 | 5.82 | 5.70 | 4.82 | 5.40 | 5.30 | 5.40

Continued, molecule first:

Row | Structure (SMILES) | melting point | pIC50 (DYRK1A) | pIC50 (GSK-3αβ) | pIC50 (CDK5) | pIC50 (HCT 116) | pIC50 (Huh7) | pIC50 (NCI) | pIC50 (MDA-MB 231) | pIC50 (PC3) | pIC50 (fibroblast) | pIC50 (Caco)
4 | Oc1ccc(-c2ncc3ncc(Nc4nc5ccccc5s4)cc3n2)cc1 [Compound 47, 2-(4-Hydroxyphenyl)-7-(2-benzothiazolamino)-pyrido[3,2-d]pyrimidine] | > 268 °C | < 5.00 | < 5.00 | 5.28 | < 4.60 | < 4.60 | < 4.60 | < 4.60 | < 4.60 | < 4.60 | < 4.60
5 | CS(=O)(=O)c1ccc(-c2cnc3cnc(-c4ccc(O)cc4)nc3c2)cc1 [Compound 26, 2-(4-Hydroxyphenyl)-7-(4-methanesulfonylphenyl)-pyrido[3,2-d]pyrimidine] | 306 to 307 °C | < 5.00 | < 4.00 | 6.32 | < 4.60 | < 4.60 | < 4.60 | < 4.60 | < 4.60 | < 4.60 | < 4.60
6 | Oc1ccc(-c2ncc3ncc(-c4ccco4)cc3n2)cc1 [Compound 35, 2-(4-Hydroxyphenyl)-7-(2-furyl)-pyrido[3,2-d]pyrimidine] | 261 to 263 °C | < 5.00 | < 5.00 | 5.74 | 5.30 | 4.82 | 5.15 | 5.40 | 4.70 | 5.22 | < 4.60
7 | Oc1cccc(-c2cnc3cnc(-c4cccc(O)c4)nc3c2)c1 [Compound 21, 2,7-Di-(3-hydroxyphenyl)-pyrido[3,2-d]pyrimidine] | 264 to 265 °C | 5.47 | < 4.00 | 5.59 | < 4.60 | < 4.60 | < 4.60 | < 4.60 | 4.60 | < 4.60 | 4.70
8 | Oc1ccc(-c2ncc3ncc(Cl)cc3n2)cc1 [Compound 17, 7-Chloro-2-(4-hydroxyphenyl)-pyrido[3,2-d]pyrimidine] | 231 to 232 °C | 4.80 | < 4.00 | 5.29 | < 4.60 | < 4.60 | < 4.60 | < 4.60 | < 4.60 | < 4.60 | < 4.60
9 | Oc1ccc(-c2ncc3ncc(-c4ccsc4)cc3n2)cc1 [Compound 37, 2-(4-Hydroxyphenyl)-7-(3-thiophyl)-pyrido[3,2-d]pyrimidine] | 248 to 250 °C | < 5.00 | < 5.00 | 6.92 | 4.82 | < 4.60 | 5.00 | < 4.60 | < 4.60 | < 4.60 | < 4.60
